# Measurements from article PMC11220827 (Frontiers in Pharmacology, 2024).
# Where two headings read alike, the source gives them in different places.
# How the values were obtained:
# TSHR = tested on: TSHR; parameters: method as in ToxCast; conditions: ref ToxCast; cited from earlier work; also: key: Pos = positive result; Neg = negative result; Inc = uncertain/inconclusive result
# HepG2 cells [1] = test: cells; assay type: cell-based; conditions: for AC50: Homo sapiens, HepG2, 24 h
# Adenosine A1 (h) = biological target: T1, Adenosine A1 (h) (Homo sapiens, UniProt P30542); test: Pharmacology profiling: Adenosine A1 (h) (antagonist RL); assay type: binding; conditions: read-out: Adenosine A1 (h) (antagonist RL): % inhibition @10 µM
# T1 sequence (P30542 1-326): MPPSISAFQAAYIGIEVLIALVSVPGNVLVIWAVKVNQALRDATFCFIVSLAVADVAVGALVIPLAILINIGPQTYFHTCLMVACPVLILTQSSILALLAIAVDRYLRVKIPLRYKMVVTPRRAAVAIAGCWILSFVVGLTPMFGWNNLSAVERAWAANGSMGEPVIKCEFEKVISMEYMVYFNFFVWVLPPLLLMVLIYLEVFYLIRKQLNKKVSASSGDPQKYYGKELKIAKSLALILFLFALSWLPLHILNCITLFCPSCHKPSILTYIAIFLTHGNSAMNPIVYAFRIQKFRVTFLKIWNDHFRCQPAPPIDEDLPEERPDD
# Text: (§1) targets. The list of targets included the original panel of 44 targets (including receptors, ion channels,
# (§2) transporters and enzymes) recommended by 4 major pharmaceutical companies as significant
# (§3) reasoned to link to pathological effects. Results showing an inhibition or stimulation higher than 50%
# (§4) are considered to represent significant effects (i.e. a “hit”).
# (§5) and 50% are indicative of weak to moderate effects and results showing an inhibition (or stimulation)
# (§6) around the control level. For several targets, additional concentration effect assays were conducted to
# (§7) determine the potency (IC50). The concentrations tested (in duplicate) ranged between 30 nM and 100
# [2] = assay type: in vitro ADME; conditions: human, 24 h
# Text: Additional information was required to determine whether an adjustment factor was needed to account for a difference in the absorption of daidzein after topical application and whether the absorption was impacted by the use of the intended (body lotion base) formulation. […]. […] […]. The results of this study are described in detail by [Géniès et al. (2024)] and are summarized here.
# Monooxygenase = tested on: Monooxygenase; parameters: method as in ToxCast; conditions: ref ToxCast, cited from earlier work; as to Thyroid pathway: Monooxygenase (Not AOP), Call: key: Pos = positive result; Neg = negative result; Inc = uncertain/inconclusive result
# 5-HT2B (h) = 5-HT2B (h) (Homo sapiens, UniProt P41595); test: Pharmacology profiling: 5-HT2B (h) (agonist RL); assay type: binding; conditions: read-out: 5-HT2B (h) (agonist RL): % inhibition @10 µM
# 5-HT2B (h), sequence (P41595 whole entry): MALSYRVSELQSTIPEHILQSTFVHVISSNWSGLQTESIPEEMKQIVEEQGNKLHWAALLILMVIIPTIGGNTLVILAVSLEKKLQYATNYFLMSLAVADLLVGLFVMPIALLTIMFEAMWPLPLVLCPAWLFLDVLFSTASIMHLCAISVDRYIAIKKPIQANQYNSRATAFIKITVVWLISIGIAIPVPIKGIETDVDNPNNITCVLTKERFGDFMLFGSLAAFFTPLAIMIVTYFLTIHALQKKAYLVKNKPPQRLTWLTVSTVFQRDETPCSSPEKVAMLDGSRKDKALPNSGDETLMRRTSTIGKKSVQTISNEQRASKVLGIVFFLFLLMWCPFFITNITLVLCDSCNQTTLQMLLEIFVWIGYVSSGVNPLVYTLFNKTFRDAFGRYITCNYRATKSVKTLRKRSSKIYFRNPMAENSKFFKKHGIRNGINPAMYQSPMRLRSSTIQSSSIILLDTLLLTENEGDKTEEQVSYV
# Text: Cosmetics Europe’s Systemic Toxicity Taskforce (SysTox-TF) has extended the list of targets in an in vitro screen originally described by [Bowes et al. (2012)] to assess the effects of cosmetic chemicals on target molecules. The approach was based on the knowledge that various targets of pharmacological interest have been linked to human adverse drug reactions, and that screening of these has helped the pharma industry in identifying drug candidates with acceptable human safety profiles ([Bowes et al., 2012]; [Scott et al., 2022]). The methods used by the pharma industry were adapted for use in cosmetic chemical NGRA. A final list of 83 target assays were considered suitable for cosmetic chemical safety testing (see Supplementary Materials S1.7). The targets were receptors, ion channels, transporters and enzymes identified by the pharma industry as linked to human adverse drug reactions, supplemented by additional targets that have been reasoned to be linked to systemic toxicities of chemicals in animals. Chemicals that are flagged for a target are tested in follow-up dose-response assays to establish potency of the interaction. […]. [Valentin et al., 2018]; [Dodson et al., 2021]). […].
# assay’s reference compound was set to 100%. For antagonist assays, the basal signal (exposure to fixed concentration of agonist only) was set to 100%. Activity of the samples was scaled accordingly, […]
# Using these graphs, lowest […]
# compound activity for antagonist assays.
# S1.7. Pharmacology profiling assays […]
# reasoned to link to pathological effects. […]
# around the control level. […]
# determine the potency (IC50).
# Supplementary Table S4 Pharmacology profiling assay panel. […]
# MCF-7 cells = test: Transcriptomics (TempO-Seq, BMD analysis) in MCF-7 cells; assay type: cell-based, human
# Protocol: (§8) These differed with respect to the number of genes passing all filters in each pathway (3 versus 5 genes). […] Therefore, we captured pathways which fulfilled both criteria.
# (§9) HepG2 (human hepatoblastoma) , MCF-7 (human breast adenocarcinoma) cells supplied by
# (§10) Public Health England European Collection of Cell Cultures (ECACC, Salisbury, UK). Differentiated
# (§11) HepaRG cells (HPR116, Lot HPR116239 -TA08) were from Biopredic International (Rennes, France).
# (§12) Test chemicals were prepared in DMSO as serial dilutions, resulting in concentrations in media of
# (§13) biological replicates were treated with the appropriate dose of co mpound for 24 h prior to cell lysis.
# (§14) Biospyder human whole genome panel version 1 (https://biospyder.com).
# Gene normalization and analysis
# (§15) expression values for each probe were normalized by applying DESEQ2 normalization. A pseudo-
# (§16) read-count of 1.0 was added to each normalized expression value, and then the values were log2
# (§17) transformed . Analyses performed included Gene and Pathway, Dose Response and Network
# (§18) monotonic increasing/decreasing trend were those which confirmed to the criteria : William’s trend
# (§19) Those genes were then used in categorical (pathway) analysis for the Gene Ontology (GO) terms and
# (§20) REACTOME pathways. Significant dose responsive pathways were determined according to : Fisher’s
# MAO-A = biological target: T2, MAO-A (Rattus norvegicus, UniProt P21396); test: Pharmacology profiling: MAO-A (antagonist RL); assay type: binding
# T2 sequence (P21396 1-526): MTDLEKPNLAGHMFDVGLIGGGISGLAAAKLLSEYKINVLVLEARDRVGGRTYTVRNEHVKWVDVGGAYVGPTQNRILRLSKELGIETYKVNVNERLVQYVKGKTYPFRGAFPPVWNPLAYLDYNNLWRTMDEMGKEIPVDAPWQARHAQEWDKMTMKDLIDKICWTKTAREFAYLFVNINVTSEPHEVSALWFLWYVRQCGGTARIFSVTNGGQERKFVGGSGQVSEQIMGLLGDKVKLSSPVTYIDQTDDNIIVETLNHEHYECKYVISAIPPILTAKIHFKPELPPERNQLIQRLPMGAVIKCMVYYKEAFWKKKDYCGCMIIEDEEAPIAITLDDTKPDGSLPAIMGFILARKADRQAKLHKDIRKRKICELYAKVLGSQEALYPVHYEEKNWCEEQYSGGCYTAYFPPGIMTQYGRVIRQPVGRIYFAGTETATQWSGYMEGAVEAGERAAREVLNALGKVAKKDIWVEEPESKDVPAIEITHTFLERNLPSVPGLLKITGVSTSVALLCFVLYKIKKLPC
# Text: as §1, §2, §3, §4, §5, §6, §7
# HepG2 cells [3] = test: Transcriptomics (TempO-Seq, BMD analysis) in HepG2 cells; assay type: cell-based, human
# Protocol: as §8, §9, §10, §11, §12, §13, §14
# Gene normalization and analysis
# as §15, §16, §17, §18, §19, §20
# [4] = MCF-7, 24 h, pathway differs per chemical
# [5] = HepG2, 24 h, pathway differs per chemical
smiles,measurement,setting,value
"O=c1c(-c2ccc(O)cc2)coc2cc(O)ccc12 [Daidzein, DAIDZEIN]","Thyroid pathway: Regulation of transcription factor activity (TSHR), Call",TSHR,Neg
same,Apoptosis & necrosis: cell membrane permeability: Effect,HepG2 cells [1],decrease
same,AC50,HepG2 cells [1]; read-out: Apoptosis & necrosis: caspase 3/7: AC50,> 100 µM
same,AC50,HepG2 cells [1]; read-out: Apoptosis & necrosis: cell membrane permeability: AC50,> 100 µM
same,AC50,HepG2 cells [1]; read-out: Cellular ATP: AC50,> 100 µM
same,AC50,HepG2 cells [1]; read-out: ER stress panel 1: ER integrity: AC50,> 100 µM
same,AC50,HepG2 cells [1]; read-out: Inflammation & pH: HIF1α: AC50,> 100 µM
same,AC50,HepG2 cells [1]; read-out: Inflammation & pH: intracellular pH: AC50,> 100 µM
same,AC50,HepG2 cells [1]; read-out: Mitochondrial mass: AC50,> 100 µM
same,AC50,HepG2 cells [1]; read-out: Mitochondrial membrane potential: AC50,55.3 µM
same,AC50,HepG2 cells [1]; read-out: Nuclear size: AC50,> 100 µM
same,AC50,HepG2 cells [1]; read-out: Osmotic & heat shock: NFAT: AC50,> 100 µM
same,AC50,HepG2 cells [1]; read-out: Osmotic & heat shock: hsp70: AC50,> 25 µM
same,AC50,HepG2 cells [1]; read-out: Oxidative stress: HMOX1: AC50,77.6 µM
same,AC50,HepG2 cells [1]; read-out: Oxidative stress: NRF2: AC50,> 100 µM
same,Apoptosis & necrosis: caspase 3/7: MEC,"HepG2 cells [1]; human, 24 h",36.9 µM
same,Apoptosis & necrosis: cell membrane permeability: MEC,"HepG2 cells [1]; human, 24 h",51.5 µM
same,"Cell stress LOEC, ↓ in mitochondrial membrane potential","HepG2 cells [1]; human, 24 h",10.8 µM
same,Cellular ATP: MEC,"HepG2 cells [1]; human, 24 h",89.4 µM
same,ER stress panel 1: ER integrity: MEC,"HepG2 cells [1]; human, 24 h",82.6 µM
same,Inflammation & pH: HIF1α: MEC,"HepG2 cells [1]; human, 24 h",32.3 µM
same,Inflammation & pH: intracellular pH: MEC,"HepG2 cells [1]; human, 24 h",26.3 µM
same,Mitochondrial mass: MEC,"HepG2 cells [1]; human, 24 h",25.9 µM
same,Mitochondrial membrane potential: MEC,"HepG2 cells [1]; human, 24 h",10.8 µM
same,Nuclear size: MEC,"HepG2 cells [1]; human, 24 h",69.2 µM
same,Osmotic & heat shock: NFAT: MEC,"HepG2 cells [1]; human, 24 h",25.0 µM
same,Osmotic & heat shock: hsp70: MEC,"HepG2 cells [1]; human, 24 h",3.3 µM
same,Oxidative stress: HMOX1: MEC,"HepG2 cells [1]; human, 24 h",44 µM
same,Oxidative stress: NRF2: MEC,"HepG2 cells [1]; human, 24 h",30.4 µM
same,Phospholipidosis: MEC,"HepG2 cells [1]; human, 24 h",14.2 µM
same,Steatosis: MEC,"HepG2 cells [1]; human, 24 h",77.4 µM
same,inhibition at 10 µM,Adenosine A1 (h),19.9%
same,Metabolized in the skin after 24 h,[2],55%
same,"Thyroid pathway: Monooxygenase (Not AOP), Call",Monooxygenase,Pos
same,AC50,"Monooxygenase; read-out: Thyroid pathway: Monooxygenase (Not AOP), AC50",9.1 µM
same,inhibition at 10 µM,5-HT2B (h),44.1%
same,"Lowest median BMD, 3 genes passing all filters",MCF-7 cells; [4],0.038 µM
same,"Lowest median BMD, >5 genes passing all filters",MCF-7 cells; [4],0.084 µM
same,BMD relating to estrogen effects,"MCF-7 cells; MCF-7, 24 h, pathway named in the cell",21.3 - response to estrogen ↓ µM
same,"Lowest median BMD (BMD/NOEC, gene pathway deregulation)",MCF-7 cells; MCF-7 cells,38 nM
same,IC50,MAO-A,9.18 µM
same,inhibition at 10 µM,MAO-A; read-out: MAO-A (antagonist RL): % inhibition @10 µM,49.6%
same,"Lowest median BMD, 3 genes passing all filters",HepG2 cells [3]; [5],16.2 µM
same,"Lowest median BMD, >5 genes passing all filters",HepG2 cells [3]; [5],30.0 µM
same,BMD relating to estrogen effects,"HepG2 cells [3]; HepG2, 24 h, pathway named in the cell",None
same,"BMD/NOEC, gene pathway deregulation",HepG2 cells [3]; HepG2 cells,16.2 µM
